Experimental findings from patent publication US12544365B2, “Pharmaceutical combination of an EP4 antagonist and immune checkpoint inhibitors for the treatment of tumours” (ROTTAPHARM BIOTECH S.R.L., priority 2019, dated 2026) are described below.

In general, Ki refers to a dissociation constant, usually derived from enzyme kinetics or from competition with a known ligand.

Assay [1] relates to CT26 cancer cell tumours. Put plainly: CT26 syngeneic model of mouse colorectal cancer in Balb/c mice. The class given is in vivo. The settings on record: compounds 30 mg/kg oral daily day 7-23; anti PD-1 i.p. 20 mg/kg day 8, 10 mg/kg days 13, 19, 22. The procedure:
Male Balb/c mice 4-6 weeks old were housed five per cage in a temperature and humidity controlled room with a 12h/12h light/dark cycle. Throughout the experiment the animals had free access to food and water. The Balb/c mice were randomly divided into 6 groups (n=15 in each group): vehicle, Compound 1, Compound 2, anti PD-1, Compound 1+anti PD-1, Compound 2+anti PD-1 group.
CT26 cells were purchased from ATCC and cultured in Dulbecco's Modified Eagle's Medium (DMEM; ThermoFisher Scientific) supplemented with 10% fetal bovine serum (FBS; Sigma Aldrich) at 37° C. in an incubator with 5% CO2. Cells were sub-cultured twice a week until the number of cells needed for inoculation was obtained.
On the day of transplantation (day 0) logarithmic growing phase cells were harvested, diluted in PBS and 10^6 cells in 0.2 ml of PBS were subcutaneously inoculated into the lateral abdominal region of each mouse using a 26G syringe.
On day 7 after inoculation the mice were randomized into the 6 treatment groups each of 15 animals receiving respectively vehicle, Compound 1, Compound 2, anti PD-1 and the combination therapies. […]
Tumour sizes (mm^3) were evaluated twice a week by using a digital caliper. The tumour volumes were calculated measuring the tumour lengths along the major and minor axis and using the formula: Volume=[[…]]/2.

Assay [2] has as its target human recombinant EP4 receptor (Homo sapiens, UniProt P35408). Briefly: [3H]-PGE2 specific binding on human recombinant EP4 receptor (HEK293 membranes). How it is done:
Cell membranes were prepared from HEK293 cell line (Human Embryonic Kidney 293) stably overexpressing human recombinant EP4 receptor. Cells grow adherent in DMEM with Glutamax | containing 10% FBS at 37° C. with 5% CO2. For membranes preparation, culture medium was aspirated from 150 cm^2 flasks in which cells were seeded. Cell monolayers were washed with 10 ml of hypotonic lysis buffer (TRIS 5 mM+EDTA 5 mM-pH 7.4), then cells were detached and lysed with the same buffer and by mechanical scraping. Lysates were centrifuged at 40000×g at 4° C. for 22 min. Pellets were stored at −80° C. until the use.
[3H]-Prostaglandin E2 ([3H]-PGE2) binding assays were performed in 10 mM MES-KOH buffer pH6, containing 10 mM MgCl2 and 1 mM CaCl2. Ten microgram of protein from membrane fractions are incubated in a total volume of 0.1 ml with 1 nM [3H]-PGE2. In order to determine the total binding or the non specific binding, 1% DMSO or 1 μM PGE2 were added to reaction mixtures, respectively. The specific binding represented >85% of total binding. In competition curves, the diluent was substituted by the test compounds (8 concentration spanning at least 2 order of magnitude; points in duplicates). In an independent series of experiments, competition curves of the same compounds were performed in the presence of Bovine Serum Albumin 0.5%. Incubation was carried out in a 96 multiwell plate for 90 min at room temperature, prior to separation of the bound and free radioligand by rapid filtration on glass fiber filters (Unifilter GFB96, PerkinElmer Inc) pre-soaked in 0.3% polyethyleneimine. Filters were washed with ice cold buffer pH 7.4 (50 mM HEPES, NaCl 500 mM, BSA 0.1%), dried for 30 minutes at 30° C. and then 0.1 ml of MICROSCINT-20 (PerkinElmer Inc) were added. The residual [3H]-PGE2 binding was determined by solid scintillation counter (TopCount, PerkinElmer Inc), after at least 1 hour of stabilization. Results of the competition curves were expressed as IC50 and the corresponding Ki were calculated according to the Chang-Prousoff equation. Finally the Ki value was transformed in pKi (the negative log of Ki).

human recombinant EP4 receptor, sequence (P35408 whole entry): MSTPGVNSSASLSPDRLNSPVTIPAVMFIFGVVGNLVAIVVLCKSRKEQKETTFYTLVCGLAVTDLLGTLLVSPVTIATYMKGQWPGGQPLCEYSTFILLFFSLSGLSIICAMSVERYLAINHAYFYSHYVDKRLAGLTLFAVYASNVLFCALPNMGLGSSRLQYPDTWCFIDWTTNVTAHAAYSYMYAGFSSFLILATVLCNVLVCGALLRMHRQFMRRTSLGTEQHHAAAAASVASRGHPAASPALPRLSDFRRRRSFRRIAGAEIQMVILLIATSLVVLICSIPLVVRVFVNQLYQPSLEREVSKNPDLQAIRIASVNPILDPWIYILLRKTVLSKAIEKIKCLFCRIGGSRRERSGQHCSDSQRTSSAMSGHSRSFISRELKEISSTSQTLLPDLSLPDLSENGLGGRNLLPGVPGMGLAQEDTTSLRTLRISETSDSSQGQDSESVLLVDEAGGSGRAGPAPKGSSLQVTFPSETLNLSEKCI

As for `O=C([O-])c1ccc(C2(NC(=O)[C@H]3CCCCN3Cc3ccc(C(F)(F)F)cc3)CC2)cc1.[Na+]` [Compound 2, (R)-4-(1-(1-(4-(trifluoromethyl)benzyl)piperidine-2-carboxamido)cyclopropyl)benzoic acid, Sodium salt], the “effect on tumour growth (tumour volume)” value in assay [1] is listed as “only showed a slight impairment of tumour growth”. Also, the Ki in assay [2] (BSA 0.5%) is 200 nM; in assay [2] (None (absence of BSA)), 31.6 nM. The “lower affinity in the presence of proteins (BSA)” value in assay [2] (BSA 0.5% vs none) came out at 6 fold.
